The data set relates to CCRIS mutagenicity, Ames/micronucleus/aberration tests. In words: CCRIS mutagenicity studies.
[1] abbreviates: Test System: AMES SALMONELLA TYPHIMURIUM, Strain/Indicator: TA98, Metabolic Activation: NONE, Method: PREINCUBATION
[2] abbreviates: Test System: AMES SALMONELLA TYPHIMURIUM, Strain/Indicator: TA100, Metabolic Activation: NONE, Method: PREINCUBATION
Setting [3] is: Test System: AMES SALMONELLA TYPHIMURIUM, Strain/Indicator: TA1535, Metabolic Activation: NONE, Method: PREINCUBATION
The mark [4] stands for this setting: Test System: AMES SALMONELLA TYPHIMURIUM, Strain/Indicator: TA98, Metabolic Activation: NONE, Method: STANDARD PLATE.
Setting [5] is: Test System: AMES SALMONELLA TYPHIMURIUM, Strain/Indicator: TA100, Metabolic Activation: NONE, Method: STANDARD PLATE.

Activity calls are given as the source filed them. No rule for the calls is given here.

In the case of `Cc1c[nH]c(=S)[nH]c1=O`, the mutagenic call reads like this: (Test System: AMES SALMONELLA TYPHIMURIUM, Strain/Indicator: TA97, Metabolic Activation: HAMSTER, LIVER, S-9, AROCLOR 1254 (10 OR 30%), Method: PREINCUBATION) “inactive; negative”; (Test System: AMES SALMONELLA TYPHIMURIUM, Strain/Indicator: TA97, Metabolic Activation: NONE, Method: PREINCUBATION) “inactive; negative”; (Test System: AMES SALMONELLA TYPHIMURIUM, Strain/Indicator: TA97, Metabolic Activation: RAT, LIVER, S-9, AROCLOR 1254 (10 OR 30%), Method: PREINCUBATION) “inactive; negative”; (Test System: AMES SALMONELLA TYPHIMURIUM, Strain/Indicator: TA98, Metabolic Activation: HAMSTER, LIVER, S-9, AROCLOR 1254 (10 OR 30%), Method: PREINCUBATION) “inactive; negative”; under setting [1], “inactive; negative”; (Test System: AMES SALMONELLA TYPHIMURIUM, Strain/Indicator: TA98, Metabolic Activation: RAT, LIVER, S-9, AROCLOR 1254 (10 OR 30%), Method: PREINCUBATION) “inactive; negative”. The mutagenic call was “inactive; negative” (Test System: AMES SALMONELLA TYPHIMURIUM, Strain/Indicator: TA100, Metabolic Activation: HAMSTER, LIVER, S-9, AROCLOR 1254 (10 OR 30%), Method: PREINCUBATION); “inactive; negative” under setting [2]; “inactive; negative” (Test System: AMES SALMONELLA TYPHIMURIUM, Strain/Indicator: TA100, Metabolic Activation: RAT, LIVER, S-9, AROCLOR 1254 (10 OR 30%), Method: PREINCUBATION); “inactive; negative” (Test System: AMES SALMONELLA TYPHIMURIUM, Strain/Indicator: TA1535, Metabolic Activation: HAMSTER, LIVER, S-9, AROCLOR 1254 (10 OR 30%), Method: PREINCUBATION); “inactive; negative” under setting [3]; “inactive; negative” (Test System: AMES SALMONELLA TYPHIMURIUM, Strain/Indicator: TA1535, Metabolic Activation: RAT, LIVER, S-9, AROCLOR 1254 (10 OR 30%), Method: PREINCUBATION).
`CCOP(=O)(OCC)SCCSCC` (tested in a mixture with another compound): the mutagenic call runs as follows: (Test System: E. COLI, Strain/Indicator: WP2 UVRA, Metabolic Activation: NONE, Method: STANDARD PLATE) “active; positive”; (Test System: E. COLI, Strain/Indicator: WP2 UVRA, Metabolic Activation: RAT, LIVER, S-9, AROCLOR 1254, Method: STANDARD PLATE) “active; positive”; (Test System: UDS HUMAN FIBROBLASTS, Strain/Indicator: THY INCORP (NON-S-PHASE), Metabolic Activation: NONE, Method: LIQUID SCINTILLATION COUNTING) “active; positive”.
Regarding `COS(=O)(=O)OC`, the mutagenic call reads like this: (End Point: IN VITRO CHROMOSOMAL ABERRATIONS, Test System: CHL CELLS, Metabolic Activation: NONE) “active; positive (structural changes)”; (End Point: IN VITRO CHROMOSOMAL ABERRATIONS, Test System: CHL CELLS, Metabolic Activation: RAT, LIVER, S-9, SODIUM PHENOBARBITAL AND 5,6-BENZOFLAVONE) “active; positive (structural changes)”; (End Point: In vitro micronucleus, Test System: Chinese Hamster Ovary (CHO-WBL) cells, Metabolic Activation: None) “active; positive (p<0.01)”; (Test System: AMES SALMONELLA TYPHIMURIUM, Strain/Indicator: TA98, Metabolic Activation: NONE) “active; positive”; under setting [1], “active; positive”; (Test System: AMES SALMONELLA TYPHIMURIUM, Strain/Indicator: TA98, Metabolic Activation: S-9) “active; positive”. The mutagenic call reads like this: (Test System: AMES SALMONELLA TYPHIMURIUM, Strain/Indicator: TA100, Metabolic Activation: NONE) “active; positive”; under setting [2], “active; positive”; (Test System: AMES SALMONELLA TYPHIMURIUM, Strain/Indicator: TA100, Metabolic Activation: S-9) “active; positive”; under setting [3], “active; positive”; (Test System: AMES SALMONELLA TYPHIMURIUM, Strain/Indicator: TA1537, Metabolic Activation: NONE, Method: PREINCUBATION) “active; positive”; (Test System: AMES SALMONELLA TYPHIMURIUM, Strain/Indicator: TA1538, Metabolic Activation: NONE, Method: PREINCUBATION) “active; positive”. The mutagenic call runs as follows: (Test System: CHINESE HAMSTER V-79, Strain/Indicator: V-79/6-THIOGUANINE, Metabolic Activation: NONE, Method: FLASK ASSAY) “inactive; negative”; (Test System: CHO/HGPRT, Strain/Indicator: CHO-K1-BH4, Metabolic Activation: NONE, Method: STANDARD PLATE) “active; positive”.
Turning to `CCC(=O)Oc1ccc(/C(CC)=C(\CC)c2ccc(OC(=O)CC)cc2)cc1`, the mutagenic call under setting [4] was “inactive; negative”; the mutagenic call (Test System: AMES SALMONELLA TYPHIMURIUM, Strain/Indicator: TA98, Metabolic Activation: RAT, LIVER, S-9, Method: STANDARD PLATE) is “inactive; negative”; the mutagenic call under setting [5] was “inactive; negative”; the mutagenic call (Test System: AMES SALMONELLA TYPHIMURIUM, Strain/Indicator: TA100, Metabolic Activation: RAT, LIVER, S-9, Method: STANDARD PLATE) is “inactive; negative”; the mutagenic call (Test System: AMES SALMONELLA TYPHIMURIUM, Strain/Indicator: TA1535, Metabolic Activation: NONE, Method: STANDARD PLATE) was “inactive; negative”; the mutagenic call (Test System: AMES SALMONELLA TYPHIMURIUM, Strain/Indicator: TA1535, Metabolic Activation: RAT, LIVER, S-9, Method: STANDARD PLATE) was “inactive; negative”. Besides, the mutagenic call is “inactive; negative” (Test System: AMES SALMONELLA TYPHIMURIUM, Strain/Indicator: TA1537, Metabolic Activation: NONE, Method: STANDARD PLATE); “inactive; negative” (Test System: AMES SALMONELLA TYPHIMURIUM, Strain/Indicator: TA1537, Metabolic Activation: RAT, LIVER, S-9, Method: STANDARD PLATE); “inactive; negative” (Test System: AMES SALMONELLA TYPHIMURIUM, Strain/Indicator: TA1538, Metabolic Activation: NONE, Method: STANDARD PLATE); “inactive; negative” (Test System: AMES SALMONELLA TYPHIMURIUM, Strain/Indicator: TA1538, Metabolic Activation: RAT, LIVER, S-9, Method: STANDARD PLATE).
Consider `CC(=O)OC1Cc2c3ccc4ccccc4c3cc3ccc(C)c1c23` (centres undefined), for which the mutagenic call is “inactive; negative” under setting [4] and “active; positive” under setting [5].
For `COc1cccc(/C=C/c2ccc(N)cc2)c1`, the mutagenic call runs as follows: (Test System: AMES SALMONELLA TYPHIMURIUM, Strain/Indicator: TA98(1,8-DNP6), Metabolic Activation: NONE, Method: STANDARD PLATE) “inactive; negative”; (Test System: AMES SALMONELLA TYPHIMURIUM, Strain/Indicator: TA98(1,8-DNP6), Metabolic Activation: S-9, Method: STANDARD PLATE) “active; positive”; under setting [4], “active; positive”; (Test System: AMES SALMONELLA TYPHIMURIUM, Strain/Indicator: TA98, Metabolic Activation: S-9, Method: STANDARD PLATE) “active; positive”; under setting [5], “inactive; negative”; (Test System: AMES SALMONELLA TYPHIMURIUM, Strain/Indicator: TA100, Metabolic Activation: S-9, Method: STANDARD PLATE) “active; positive”.
As for `C[C@H](CCC(=O)O)[C@H]1CC[C@H]2[C@@H]3CC[C@@H]4CC(=O)CC[C@]4(C)[C@H]3C[C@@H](O)[C@]12C`, the mutagenic call was “inactive; negative” (Test System: AMES SALMONELLA TYPHIMURIUM, Strain/Indicator: TA98, Metabolic Activation: NONE, Method: FLUCTUATION TEST); “inactive; negative” under setting [1]; “inactive; negative” (Test System: AMES SALMONELLA TYPHIMURIUM, Strain/Indicator: TA98, Metabolic Activation: RAT, LIVER, S-9, PCB, Method: PREINCUBATION); “inactive; negative” (Test System: AMES SALMONELLA TYPHIMURIUM, Strain/Indicator: TA100, Metabolic Activation: NONE, Method: FLUCTUATION TEST).
As for `c1ccc2c(c1)ccc1c3c(ccc12)CCC3`, the mutagenic call is “inactive; negative” under setting [5] and “inactive; negative” (Test System: AMES SALMONELLA TYPHIMURIUM, Strain/Indicator: TA100, Metabolic Activation: RAT, LIVER, S-9, AROCLOR 1254, Method: STANDARD PLATE).
For the compound `Cc1nc2c(cc(C)c3ccc4ccc(O)cc4c32)[nH]1`, the mutagenic call (Test System: AMES SALMONELLA TYPHIMURIUM, Strain/Indicator: TA98, Metabolic Activation: RAT, LIVER, S-9, AROCLOR, Method: STANDARD PLATE) is “active; positive”.

Source of the values: PubChem BioAssay AID1259407 (Chemical Carcinogenesis Research Information System (CCRIS), 2018).
